{"source": "patent US11192849B2", "about": "“Compounds, compositions, and methods for modulating ferroptosis and treating excitotoxic disorders” (THE TRUSTEES OF COLUMBIA UNIVERSITY IN THE CITY OF NEW YORK, priority 2013, dated 2021)", "key": {"[1]": {"test_system": "mouse kidney proximal tubules", "experiment": "Hydroxyquinoline + iron induced cell death in isolated mouse kidney proximal tubules (LDH release)", "type": "cell-based", "conditions": "10 μM hydroxyquinoline and ferrous ammonium sulfate, 60 min", "experimental": "Tubule preparation: 8-12 week old C57/BL6 female mice were euthanized with isoflurane. […] The cortices were then dissected and minced on an ice cold tile, then resuspended in additional Solution A for 8-10 min. of digestion at 37° C. followed by enrichment of proximal tubules using centrifugation on self-forming Percoll gradients as previously described for rabbit tubules.\nExperimental procedures for isolated tubules: Tubules were suspended at 1.5-2.0 mg tubule protein/ml in a 95% air/5% CO2-gassed medium containing (in mM) 110 NaCl, 2.6 KCl, 25 NaHCO3, 2.4 KH2PO4, 1.25 CaCl2, 1.2 MgCl2, 1.2 MgSO4, 5 glucose, 4 sodium lactate, 0.3 alanine, 5 sodium butyrate, 2 glycine, and 1.0 mg/ml bovine gelatin (75 bloom) (Solution B). After precincubation for 15 min. at 37° C., then were then resuspended in fresh Solution B containing 2 mM heptanoic acid instead of sodium butyrate along with experimental compounds.\nIn addition, the efficacy of Fer-1, SRS11-92, and selected analogs was tested in a model of iron-induced cell death in freshly isolated mouse kidney proximal tubules that simulates major elements of rhabdomyolysis-induced acute kidney injury (FIG. 15C). Cell death in this model is known to involve oxidative lipid damage (Sogabe, et al., 1996, Park, et al., 2011); it was therefore believed that Fer-1 might be protective. 10 μM each of hydroxyquinoline and ferrous ammonium sulfate (HQ+Fe) were used to induce cell death, which was quantified by monitoring LDH release after 60 min. […] By implication, cell death in these models may involve, at least in part, the induction of lipid peroxidation and perhaps ferroptosis."}, "[2]": {"test_system": "freshly isolated renal tubules", "experiment": "LDH release from hypoxic freshly isolated renal tubules", "type": "cell-based, mouse", "conditions": "Nec-1 50 μM, with or without glycine", "experimental": "Six to 12 mice were used for each isolated tubule preparation, depending on the amount of material needed for particular experiments. For preparation of isolated tubules, mice were anesthetized with ketamine (100 mg/kg i.p.) and xylazine (10 mg/kg i.p.), and the kidneys were immediately removed. Type I collagenase was from Worthington Biochemical. Percoll was purchased from Amersham Biosciences. All other reagents and chemicals, including delipidated BSA, were of the highest grade available from Sigma-Aldrich. […] The cortices were then dissected and minced on an ice-cold tile and then resuspended in additional solution A for 8-10 min of digestion at 37° C., followed by enrichment of proximal tubules using centrifugation on self-forming Percoll gradients. For Nec-1 studies in renal tubules, renal cortices were dissected in ice-cold dissection solution (DS) [HBSS with 10 mmol/L glucose, 5 mmol/L glycine, 1 mmol/L alanine, 15 mmol/L Hepes (pH 7.4); osmolality, 325 mOsmol/L] and sliced into 1-mm pieces. The fragments were transferred to collagenase solution (DS with 0.1% (wt/vol) type 2 collagenase and 96 μg/mL soybean trypsin inhibitor) and digested for 30 min at 37° C. and 61×g. After digestion, the supernatant was sieved through two nylon sieves: first 250-μm pore size and then 100-μm pore size. […]"}, "[3]": {"test_system": "HT-1080, BJeLR and Calu-1 cells", "experiment": "Modulatory profiling of cell death inhibitors against erastin", "type": "cell-based, human", "conditions": "erastin 10 μM, 24 hours; 10-point, 4-fold dilution series", "experimental": "The day before the experiment, cells were seeded in black, 384-well clear bottom plates (Corning) at a density of 1,000 cells/well using a Beckman Biomek FX Workstation. All compounds (except 3-methyladenine and chloroquine, which were diluted in water) were diluted in DMSO at 250 times the final highest test concentration, and aliquoted across a 384-well plate (Greiner, Monroe, N.C.). A ten-point, 4-fold dilution series of each inhibitor in DMSO was made using a multichannel pipette. Replicates of this mother plate were stored at −20° C. […] Medium was removed from cells and replaced with 36 μL medium containing DMSO (0.1%) or erastin (10 μM final concentration). Using the Biomek FX, 4 μL were then transferred from each inhibitor daughter plate into the DMSO-containing or erastin-containing assay plates. For 3-methyladenine and chloroquine, inhibitors were prepared fresh in media at 10-fold the final concentration in the presence of DMSO or 10 μM erastin. These solutions were manually pipetted onto cells in 384-well format. Assay plates were incubated at 37° C. for 24 hours. Viability was assessed using Alamar Blue.\nThe modulatory effect (Me) for drug-drug interactions was computed as follows. First, plate-based background correction was performed using Alamar Blue values from empty (cell-free) wells included on each plate. Next, within each experiment, 100% viability is determined as the average Alamar Blue score for cells treated with modulator=DMSO and lethal=DMSO, and all Alamar Blue values were scaled from 0 to 1 with the DMSO×DMSO condition=1. The individual effects of each modulator and lethal (e.g. in the presence of DMSO) at all tested doses were then ascertained. […] Next, BExp was compared to the actual observed viability. […] By default, Me in DMSO-treated cells is equal to 0. […] Me values for each inhibitor-lethal drug combination were hierarchically clustered and plotted as a heatmap using the heatmaps.2 function of the gplots library in R."}}}
{"smiles": "CN1C(=O)C(Cc2c[nH]c3ccccc23)NC1=S", "note": "(stereo not drawn) [necrostatin-1]", "values": [{"measurement": "HQ+Fe induced lethality (LDH release)", "setting": "[1]", "result": "did not show any protection"}, {"measurement": "LDH release from hypoxic renal tubules", "setting": "[2]", "result": "no protection was detected"}, {"measurement": "modulation of erastin-induced death", "setting": "[3]", "result": "not consistently modulated"}]}
